Patent publication US20230203060A1 (GENFLEET THERAPEUTICS (SHANGHAI) INC., priority 2020, published 2023)
Where two headings read alike, the source gives them in different places.

How the values were obtained:
Assay type in all cases: cell-based, human
[1] = test system: A549 cells (KRAS G12S mutant); assay: Cell proliferation inhibition experiment, 3D spheroid, CellTiter-Glo, A549; conditions: A549 (KRAS G12S mutant) 3D spheroid, 5 days with compound, CellTiter-Glo, read-out: A549 IC50
Description: (§1) Raw materials and instruments: NCI-H358 purchased from ATCC; article number: CRL-5807; batch number: 70010825; A549 purchased from ATCC; article number: CCL-185; batch number: 70007820; RPMI1640 purchased from Gibco; article number: 11875-093; batch number: 2152748; F-12K purchased from Gibco; article number: 21127-022; batch number: 2185853; FBS purchased from Gibco; article number: 10099-141; batch number: 2109290CP; PS purchased from Gibco; article number: 15140-122; batch number: 2145451; Trypsin-EDTApurchased from Gibco; article number: 25200-072; batch number: 2085552; CellTiter Glo working solution purchased from Promega; article number: G9683; batch number: 398478; DMSO purchased from VWR AMRESCO; article number: 0231-500ML; batch number: 18C0656168; 384-well spheroid plate purchased from Corning; article number: 3830; batch number: 27519032; white opaque 384-well plate purchased from Corning; article number: 3570; batch number: 26819023; microplate reader purchased from PerkinElmer; model: Envision MLD2105-0020; equipment number 1050369.
(§2) NCI-H358 is a KRAS G12C mutant human non-small cell lung cancer cell line, cultured in 10% FBS RPMI-1640+1% PS culture medium; and A549 is a KRAS G12S mutant human lung adenocarcinoma cell line, cultured in 10% FBS F-12K+1% PS culture medium. Cells at logarithmic growth stage were taken, digested with trypsin-EDTA, then collected and counted. H358 was adjusted to 1.8 E4 cells/mL with 2% FBS RPMI-1640 culture medium, and A549 was adjusted to 8.9 E3 cells/mL with 2% FBS F-12K culture medium; 800 (45 μL) H358 or 400 (45 μL) A549 were inoculated respectively in a 384-well spheroid plate and cultured overnight to establish a 3D cell model. A 3.16-fold gradient concentration stock solution of 1000× compound was prepared with DMSO, and diluted 100-fold to 10× compound stock solution with 2% FBS culture medium. On the second day after cell inoculation, 5 μL of 10× compound stock solution was added to each cell culture well, with a final concentration of 1× and a DMSO content of 0.1%. DMSO was used as experimental control (control), and 2% FBS culture medium was used as blank control (blank). After 5 days of compound cell culture, 25 μL of CellTiter-Glo working solution was added to each well, mixed well at 400 rpm and incubated for 30 minutes. After standing at room temperature for 30 minutes, 40 μL of the mixed solution was transferred to a white opaque 384-well plate, and the luminescence chemiluminescence value was read with a microplate reader. The cell proliferation inhibition rate IR (%)=(RLU control -RLU compound)/(RLU control -RLU blank) x100% was calculated. The gradient dilution concentration of the compound and the corresponding cell proliferation inhibition rate were fitted by Prism 6 four-parameter method, and the IC50 value was calculated. The inhibitory activity of the compounds prepared in the above embodiments of the present disclosure on KRAS G12C mutant NCI-H358 cells was 0.0001 μM to 0.5 μM; the inhibitory activity of some compounds on KRAS G12C mutant NCI-H358 cells was 0.001 μM to 0.1 μM or 0.001 μM to 0.05 μM.

[2] = test system: KRAS G12C mutant NCI-H358 cells; assay: Cell proliferation inhibition experiment, 3D spheroid, CellTiter-Glo, NCI-H358; conditions: NCI-H358 (KRAS G12C mutant) 3D spheroid, 5 days with compound, CellTiter-Glo, read-out: H358 IC50
Description: as §1, §2

[3] = test system: KRAS G12C mutant MIA PaCa-2 cells; assay: Cell proliferation inhibition experiment, 3D spheroid, CellTiter-Glo, MIA PaCa-2; conditions: Homo sapiens, MIA PaCa-2, 120 h, 3D cell model in 384-well spheroid plate, 5 days, CellTiter-Glo; read-out: MIA-PaCa2 IC50
Description: Raw materials and instruments: MIA PaCa-2 purchased from ATCC; article number: CRL-1420; batch number: 63143594; DMEM purchased from Gibco; article number: 11995-065; batch number: 2186878; FBS purchased from Gibco; article number: 10099-141; batch number: 2109290CP; Horse Serum purchased from Gibco; article number: 16050-122; batch number: 1818976; PS purchased from Gibco; article number: 15140-122; batch number: 2145451; Trypsin-EDTA purchased from Gibco; article number: 25200-072; batch number: 2085552; CellTiter Glo working solution purchased from Promega; article number: G9683; batch number 398478; DMSO purchased from VWR AMRESCO; article number: 0231-500ML; batch number: 18C0656168; 384-well spheroid plate purchased from Corning; article number: 3830; batch number: 27519032; white opaque 384-well plate purchased from Corning; article number: 3570; batch number: 26819023; microplate reader purchased from PerkinElmer; model: Envision MLD2105-0020; equipment number 1050369.
MIA PaCa-2 is a KRAS G12C mutant human pancreatic cancer cell line, cultured in 10% FBS+2.5% Horse Serum DMEM+1% PS culture medium; cells at logarithmic growth stage were taken, digested with trypsin-EDTA, then collected and counted, and 200 MIA PaCa-2 were inoculated in a 384-well spheroid plate, respectively, and cultured overnight to establish a 3D cell model. A 3.16-fold gradient concentration stock solution of 1000× compound was prepared with DMSO, and diluted 100-fold to 10× compound stock solution with culture medium. On the second day after cell inoculation, 10× compound stock solution was added to each cell culture well, with a final concentration of 1× and a DMSO content of 0.1%. DMSO was used as experimental control (control), and culture medium was used as blank control (blank). After 5 days of compound cell culture, 30 μL of CellTiter-Glo working solution was added to each well, mixed well and incubated for 30 minutes. After standing at room temperature for 30 minutes, 40 μL of the mixed solution was transferred to a white opaque 384-well plate, and the luminescence chemiluminescence value was read with a microplate reader. The cell proliferation inhibition rate IR (%)=(RLU control -RLU compound)/(RLU control−RLU blank)×100% was calculated. The gradient dilution concentration of the compound and the corresponding cell proliferation inhibition rate were fitted by XLFit four-parameter method, and the IC50 value was calculated. The inhibitory activity of the compounds prepared in the above embodiments of the present disclosure on KRAS G12C mutant MIA PaCa-2 cells was 0.0001 μM to 0.5 μM; the inhibitory activity of some compounds on KRAS G12C mutant MIA PaCa-2 cells was 0.001 μM to 0.1 μM or 0.001 μM to 0.05 μM.

| Structure (SMILES) | IC50 [1] | IC50 [2] | IC50 ([1]; Homo sapiens, A549, 120 h) | IC50 ([2]; Homo sapiens, NCI-H358, 120 h) | IC50 [3] |
| --- | --- | --- | --- | --- | --- |
| C=CC(=O)N1CCN2C(=O)c3c(N[C@H]4[C@@H]5CN(C)C[C@@H]54)nc(-c4c(O)cccc4F)c(Cl)c3OC[C@H]2C1 [Z46, (6aR)-8-acryloyl-4-chloro-3-(2-fluoro-6-hydroxyphenyl)-1-(((1R,5S,6s)-3-methyl-3-azabicyclo[3.1.0]hexan-6-yl)amino)-6,6a,7,8,9,10-hexahydro-12H-pyrazino[2,1-c]pyrido[3,4-f][1,4]oxazepin-12-one] | > 20000 nM | 460 nM |  |  |  |
| C=CC(=O)N1CCN2C(=O)c3c(NC(=O)CC(C)(C)C)nc(-c4c(O)cccc4F)c(Cl)c3OC[C@H]2C1 [Z33, N-((6aR)-8-acryloyl-4-chloro-3-(2-fluoro-6-hydroxyphenyl)-12-oxo-6,6a,7,8,9,10-hexahydro-12H-pyrazino[2,1-c]pyrido[3,4-f][1,4]oxazepin-1-yl)-3,3-dimethylbutanamide] |  |  | > 30000 nM | 113 nM |  |
| C=CC(=O)N1CCN2C(=O)c3c(N4CCN5C(=O)CC[C@@H]5C4)nc(-c4c(O)cccc4F)c(Cl)c3OC[C@H]2C1 (single isomer, unassigned) [Z317a-2] |  |  | > 30000 nM | 108 nM |  |
| C=CC(=O)N1CCN2C(=O)c3c(N4C[C@@H](C)O[C@@H](C)C4)nc(-c4c(O)cccc4F)c(Cl)c3OC[C@H]2C1 [Z247, (6aR)-8-acryloyl-1-((2S,6R)-2,6-dimethylmorpholino)-4-chloro-3-(2-fluoro-6-hydroxyphenyl)-6,6a,7,8,9,10-hexahydro-12H-pyrazino[2,1-c]pyrido[3,4-f][1,4]oxazepin-12-one] |  |  |  | 41 nM | 47 nM |
| C=CC(=O)N1CCN2C(=O)c3c(N4C[C@](C)(O)CC4(C)C)nc(-c4c(O)cccc4F)c(F)c3OC[C@H]2C1 (single isomer, unassigned) [Z256b-2] |  |  |  | 44.7 nM | 105 nM |
| C=CC(=O)N1CCN2C(=O)c3c(OC[C@H]4CCCN4C)nc(-c4c(O)cccc4F)c(Cl)c3OC[C@H]2C1 [Z13, (6aR)-8-acryloyl-4-chloro-3-(2-fluoro-6-hydroxyphenyl)-1-(((R)-1-methylpyrrolidin-2-yl)methoxy)-6,6a,7,8,9,10-hexahydro-12H-pyrazino[2,1-c]pyrido[3,4-f][1,4]oxazepin-12-one] |  |  | > 5000 nM | 51 nM |  |
| C=CC(=O)N1CCN2C(=O)c3c(N4CCN5C(=O)CC[C@H]5C4)nc(-c4c(O)cccc4F)c(Cl)c3OC[C@H]2C1 (single isomer, unassigned) [Z317a-1] |  |  | > 30000 nM | 145 nM |  |
| C=CC(=O)N1CCN2C(=O)c3c(-c4cn(C)nc4C)nc(-c4c(O)cccc4F)c(Cl)c3OC[C@H]2C1 [Z74, (6aR)-8-acryloyl-4-chloro-1-(1,3-dimethyl-1H-pyrazol-4-yl)-3-(2-fluoro-6-hydroxyphenyl)-6,6a,7,8,9,10-hexahydro-12H-pyrazino[2,1-c]pyrido[3,4-f][1,4]oxazepin-12-one] |  |  | > 30000 nM | 324 nM |  |
| C=CC(=O)N1CCN2C(=O)c3c(N4CCC(N(C)C)CC4)nc(-c4c(O)cccc4F)c(Cl)c3OC[C@H]2C1 [Z31, (6aR)-8-acryloyl-4-chloro-1-(4-(dimethylamino)piperidin-1-yl)-3-(2-fluoro-6-hydroxyphenyl)-6,6a,7,8,9,10-hexahydro-12H-pyrazino[2,1-c]pyrido[3,4-f][1,4]oxazepin-12-one] |  |  | > 30000 nM | 176 nM |  |
| C=CC(=O)N1CCN2C(=O)c3c(Nc4c(C)c(Cl)nn4C(C)C)nc(-c4c(O)cccc4F)c(Cl)c3OC[C@H]2C1 [Z16, (6aR)-8-acryloyl-4-chloro-1-((3-chloro-1-isopropyl-4-methyl-1H-pyrazol-5-yl)amino)-3-(2-fluoro-6-hydroxyphenyl)-6,6a,7,8,9,10-hexahydro-12H-pyrazino[2,1-c]pyrido[3,4-f][1,4]oxazepin-12-one] |  |  | > 1000 nM | 37 nM |  |
